Data from PubChem BioAssay AID248 (DTP/NCI, 2004).
Where “and” joins values, the source holds several entries; their conditions need not be identical. Equal entries are not always repeated. Toxic doses and inconclusive results are not listed. Cut-off read from the data, not from the text of the source: active = T/C of 150% or more; inactive = T/C below 125%.

Test system: L1210 leukemia ip in BDF1 mice, survival T/C
Assay: NCI In Vivo Anticancer Drug Screen. Data for tumor model L1210 Leukemia (intraperitoneal) in B6D2F1 (BDF1) mice
Settings: endpoint: mean survival time, higher = longer survival
Procedure, shortened: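 In this screen, tumor-bearing mice given compound are compared to those given vehicle, and their survival values are reported as a treated-to-control quotient.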

[1] = dose: 100.0 mg/kg/injection, schedule: Q01DX001 (ip), vehicle: saline with Tween-80
[2] = dose: 200.0 mg/kg/injection, schedule: Q01DX001 (ip), vehicle: saline with Tween-80
[3] = dose: 400.0 mg/kg/injection, schedule: Q01DX001 (ip), vehicle: saline with Tween-80
[4] = dose: 100.0 mg/kg/injection, schedule: Q04DX003 (ip), vehicle: saline with Tween-80
[5] = dose: 200.0 mg/kg/injection, schedule: Q04DX003 (ip), vehicle: saline with Tween-80
[6] = dose: 400.0 mg/kg/injection, schedule: Q04DX003 (ip), vehicle: saline with Tween-80
[7] = dose: 100.0 mg/kg/injection, schedule: Q01DX001 (ip), vehicle: saline
[8] = dose: 200.0 mg/kg/injection, schedule: Q01DX001 (ip), vehicle: saline
[9] = dose: 400.0 mg/kg/injection, schedule: Q01DX001 (ip), vehicle: saline
[10] = dose: 100.0 mg/kg/injection, schedule: Q04DX003 (ip), vehicle: saline
[11] = dose: 200.0 mg/kg/injection, schedule: Q04DX003 (ip), vehicle: saline
[12] = dose: 400.0 mg/kg/injection, schedule: Q04DX003 (ip), vehicle: saline
[13] = dose: 12.5 mg/kg/injection, schedule: Q01DX009 (ip), vehicle: Klucel (hydroxypropylcellulose) (HPC)
[14] = dose: 100.0 mg/kg/injection, schedule: Q04DX002 (ip), vehicle: Klucel (hydroxypropylcellulose) (HPC)
[15] = dose: 200.0 mg/kg/injection, schedule: Q04DX002 (ip), vehicle: Klucel (hydroxypropylcellulose) (HPC)
[16] = dose: 100.0 mg/kg/injection, schedule: Q04DX003 (ip), vehicle: Klucel (hydroxypropylcellulose) (HPC)
[17] = dose: 200.0 mg/kg/injection, schedule: Q04DX003 (ip), vehicle: Klucel (hydroxypropylcellulose) (HPC)
[18] = dose: 400.0 mg/kg/injection, schedule: Q04DX003 (ip), vehicle: Klucel (hydroxypropylcellulose) (HPC)

Measured: T/C

CC(=O)OC1CCC2(C)C(CCC3C2CCC2(C)C3CC3OC(CCC(C)(C)O)C(C)C32)C1 (stereo not given)
inactive: [1] 92 % of control | [2] 92 % of control | [3] 92 % of control

O=C(c1ccc(F)cc1)c1ccc(Cl)cc1Cl
inactive: [4] 97 % of control | [5] 98 % of control | [6] 101 % of control

NC(N)=NC1=NC(=O)CS1
inactive: dose: 100.0 mg/kg/injection, schedule: Q01DX009 (ip), vehicle: saline with Tween-80 105 % of control | [4] 108 % of control | dose: 200.0 mg/kg/injection, schedule: Q01DX009 (ip), vehicle: saline with Tween-80 103 % of control | [5] 96 % of control | dose: 400.0 mg/kg/injection, schedule: Q01DX009 (ip), vehicle: saline with Tween-80 103 % of control | [6] 92 % of control

CCC1(C)N=C(N)Nc2nc3ccccc3n21 (stereo not given)
inactive: [7] 96 % of control | [8] 94 % of control

COc1ccc(-c2oc3cc(OC)ccc3c(=O)c2O)cc1
inactive: dose: 50.0 mg/kg/injection, schedule: Q01DX001 (ip), vehicle: saline 106 % of control | [7] 98 % of control | [8] 104 % of control | [9] 98 % of control

CCCCCCCC(C(C)=O)C(=O)OCC (stereo not given)
inactive: [1] 95 % of control | [2] 103 % of control | [3] 95 % of control

[Se]=P(C#Cc1ccccc1)(C#Cc1ccccc1)C#Cc1ccccc1
inactive: [1] 87 % of control | [2] 93 % of control | [3] 87 % of control

c1ccc([P+](c2ccccc2)(c2ccccc2)c2ccc(-c3ccc([P+](c4ccccc4)(c4ccccc4)c4ccccc4)cc3)cc2)cc1
inactive: dose: 1.25 mg/kg/injection, schedule: Q01DX009 (ip), vehicle: Klucel (hydroxypropylcellulose) (HPC) 102 % of control | dose: 3.5 mg/kg/injection, schedule: Q01DX009 (ip), vehicle: Klucel (hydroxypropylcellulose) (HPC) 105 % of control

CC(C)(C)C1=CC(C(C)(C)C)CCC1=O (stereo not given)
inactive: dose: 100.0 mg/kg/injection, schedule: Q04DX003 (ip), vehicle: acetone 98 % of control | dose: 200.0 mg/kg/injection, schedule: Q04DX003 (ip), vehicle: acetone 102 % of control | dose: 400.0 mg/kg/injection, schedule: Q04DX003 (ip), vehicle: acetone 92 % of control

O=C(O)c1cscc1Cc1cccs1
inactive: [1] 96 % of control | [2] 96 % of control | [3] 103 % of control

NC1=NC(c2ccc(Cl)cc2)N(c2ccc(S(=O)(=O)Nc3ncccn3)cc2)C(N)=N1 (stereo not given)
inactive: [10] 103 % of control | [11] 96 % of control | [12] 100 % of control

CC[CH2][Pb]([CH2]CC)([CH2]CC)[O]C(=O)C(Cl)(Cl)Cl
inactive: dose: 3.12 mg/kg/injection, schedule: Q01DX009 (ip), vehicle: Klucel (hydroxypropylcellulose) (HPC) 108 % of control | dose: 3.12 mg/kg/injection, schedule: Q04DX002 (ip), vehicle: Klucel (hydroxypropylcellulose) (HPC) 105 % of control | dose: 6.25 mg/kg/injection, schedule: Q01DX009 (ip), vehicle: Klucel (hydroxypropylcellulose) (HPC) 93 % of control | dose: 6.25 mg/kg/injection, schedule: Q04DX002 (ip), vehicle: Klucel (hydroxypropylcellulose) (HPC) 93 % of control | [13] 101 % of control | dose: 12.5 mg/kg/injection, schedule: Q04DX002 (ip), vehicle: Klucel (hydroxypropylcellulose) (HPC) 97 % of control and 99 % of control

O=C1C=C2CCN(C(=O)c3ccccc3)CC2O1 (stereo not given)
inactive: [7] 100 % of control | [8] 105 % of control | [9] 100 % of control

CC(=O)OC(C)COCc1ccccc1 (stereo not given)
inactive: [7] 107 % of control | [8] 89 % of control | [9] 100 % of control

COC(=O)C(Cl)C(Cl)c1ccccc1 (stereo not given)
inactive: [4] 97 % of control | [5] 97 % of control | [6] 94 % of control

CCCCC(=O)N/N=C/c1c(O)ccc2ccccc12
inactive: [7] 94 % of control | [8] 94 % of control | [9] 92 % of control

CCCCCP(=S)(CCCC)CCCCC
inactive: [14] 98 % of control | [15] 94 % of control | dose: 400.0 mg/kg/injection, schedule: Q04DX002 (ip), vehicle: Klucel (hydroxypropylcellulose) (HPC) 94 % of control

O=[N+]([O-])c1cc(Cl)ccc1S(=O)(=O)O
inactive: [16] 101 % of control | [17] 93 % of control | [18] 98 % of control

O=C(Oc1ccc([N+](=O)[O-])cc1)c1ccc(C[P+](c2ccccc2)(c2ccccc2)c2ccccc2)cc1
inactive: dose: 100.0 mg/kg/injection, schedule: Q01DX009 (ip), vehicle: saline 98 % of control | [10] 93 % of control | dose: 200.0 mg/kg/injection, schedule: Q01DX009 (ip), vehicle: saline 98 % of control | [11] 90 % of control | dose: 400.0 mg/kg/injection, schedule: Q01DX009 (ip), vehicle: saline 96 % of control | [12] 93 % of control

O=C(NO)c1cc(Cl)c(C(=O)NO)cc1Cl
inactive: dose: 100.0 mg/kg/injection, schedule: Q01DX009 (ip), vehicle: other 93 % of control | [10] 102 % of control | dose: 200.0 mg/kg/injection, schedule: Q01DX009 (ip), vehicle: other 95 % of control | [11] 102 % of control | [12] 97 % of control

COc1ccc(N2c3ccccc3-c3cc[nH]c(=O)c3[C@H]2O)cc1OC
inactive: dose: 12.5 mg/kg/injection, schedule: Q04DX003 (ip), vehicle: saline 93 % of control | dose: 25.0 mg/kg/injection, schedule: Q04DX003 (ip), vehicle: saline 101 % of control | dose: 50.0 mg/kg/injection, schedule: Q04DX003 (ip), vehicle: saline 91 % of control | dose: 75.0 mg/kg/injection, schedule: Q04DX003 (ip), vehicle: saline 99 % of control | dose: 115.0 mg/kg/injection, schedule: Q04DX003 (ip), vehicle: saline 105 % of control | dose: 170.0 mg/kg/injection, schedule: Q04DX003 (ip), vehicle: saline 94 % of control

CC1(C)Cc2cccc(OC(=O)NO)c2O1
inactive: dose: 12.5 mg/kg/injection, schedule: Q01DX001 (ip), vehicle: Klucel (hydroxypropylcellulose) (HPC) 100 % of control | dose: 25.0 mg/kg/injection, schedule: Q01DX001 (ip), vehicle: Klucel (hydroxypropylcellulose) (HPC) 96 % of control | dose: 50.0 mg/kg/injection, schedule: Q01DX001 (ip), vehicle: Klucel (hydroxypropylcellulose) (HPC) 96 % of control

C1CCCN(/N=N/N2CCCCCC2)CC1
inactive: [1] 100 % of control | [2] 92 % of control | [3] 100 % of control

CS/C(N)=N\N=C\c1ccccn1
inactive: dose: 12.5 mg/kg/injection, schedule: Q01DX001 (ip), vehicle: carboxymethylcellulose (CMC) 104 % of control | dose: 25.0 mg/kg/injection, schedule: Q01DX001 (ip), vehicle: carboxymethylcellulose (CMC) 103 % of control

CC(C)CCNc1ncnc2[nH]ncc12
inactive: [13] 117 % of control | dose: 25.0 mg/kg/injection, schedule: Q01DX009 (ip), vehicle: Klucel (hydroxypropylcellulose) (HPC) 104 % of control | dose: 50.0 mg/kg/injection, schedule: Q01DX009 (ip), vehicle: Klucel (hydroxypropylcellulose) (HPC) 109 % of control

CCOC(=O)NC(NC(=O)OCC)C(Cl)CC (stereo not given)
inactive: [7] 107 % of control | [8] 97 % of control | [9] 101 % of control

O=NN(CCCl)C(=O)NCc1ccc(-c2ccc(CNC(=O)N(CCCl)N=O)cc2)cc1
active: dose: 177.0 mg/kg/injection, schedule: Q01DX001 (ip), vehicle: other 156 % of control and 188 % of control | dose: 266.0 mg/kg/injection, schedule: Q01DX001 (ip), vehicle: other 180 % of control | dose: 400.0 mg/kg/injection, schedule: Q01DX001 (ip), vehicle: other 194 % of control | dose: 400.0 mg/kg/injection, schedule: Q01DX009 (ip), vehicle: carboxymethylcellulose (CMC) 159 % of control and 274 % of control | dose: 600.0 mg/kg/injection, schedule: Q01DX001 (ip), vehicle: other 264 % of control | dose: 600.0 mg/kg/injection, schedule: Q01DX009 (ip), vehicle: carboxymethylcellulose (CMC) 261 % of control

CC(=O)NC1CCc2ccccc21 (stereo not given)
inactive: dose: 50.0 mg/kg/injection, schedule: Q04DX002 (ip), vehicle: Klucel (hydroxypropylcellulose) (HPC) 102 % of control | [14] 105 % of control | [15] 118 % of control

CC(C)(C)C(=O)CSC/C(=N/O)C(C)(C)C
inactive: [16] 112 % of control | [17] 103 % of control | [18] 99 % of control

C[S+](C)c1ccccc1NCc1ccccc1O
inactive: [1] 92 % of control | [2] 93 % of control | [3] 90 % of control
